{"source": "patent US20240392302A1", "about": "“METHOD FOR DETECTING AND QUANTIFYING RNA” (FLUORESCENCE DIAGNOSIS (SHANGHAI) BIOTECH COMPANY LTD., priority 2021, published 2024)", "key": {"[1]": {"test": "Function detection of the nucleic acid aptamer: fluorescence activation of I-5-14 by N16-1, its mutants and base-modified forms", "type": "biochemical", "conditions": "0.5 μM I-5-14 without nucleic acid aptamer, same detection conditions", "protocol": "A primer containing T7 promoter was used for amplification of corresponding cDNA of RNA to be detected, and T7 RNA polymerase (purchased from Fermentas) was used for obtaining RNA by means of transcription with recovered double-stranded cDNA as a template. 10 μL of 3 M NaAc and 115 μL of DEPC water were added into 20 μL of transcription system, and were mixed well before 150 μL of phenol chloroform-[…] mixture (phenol:chloroform:[…]=25:24:1) was added; then the mixture was mixed well by means of oscillation, and the supernatant was taken after centrifugation at 10,000 rpm for 5 min. An equal volume of chloroform solution was added and was mix well by means of oscillation, and then the supernatant was taken after centrifugation at 10,000 rpm for 5 min; the process was repeated once. 2.5 times the volume of anhydrous ethanol was added into the supernatant, and the mixture was placed in a refrigerator at −20° C. for 30 min and was subject to centrifugation at 12,000 rpm at 4° C. for 5 min; then the supernatant was removed, and the precipitation was cleaned twice with 75% pre-cooled anhydrous ethanol. After volatilization of the ethanol, the precipitation was re-suspended with an appropriate amount of screening buffer, and then was treated at 75° C. for 5 min and was placed at room temperature for more than 10 min for subsequent experiments.\n(§1) Nucleic acid aptamer molecules of N16 or N16 mutants were prepared by using the commonly-used experimental method (I), 2.5 μM of nucleic acid aptamer molecules and 0.5 μM of fluorophore molecules were incubated in a detection buffer (40 mM of HEPES, pH 7.4, 125 mM of KCl, 5 mM of MgCl2, 5% DMSO), and the maximum excitation peak and the maximum emission peak of the fluorescence of the nucleic acid aptamer-fluorophore molecular complex were detected with Synergy Neo2 multifunctional enzyme-labeler. Synergy Neo2 multifunctional enzyme-labeler was used again to detect fluorescence intensity of the nucleic acid aptamer-fluorophore molecular complex under its maximum excitation and emission conditions, the control sample ([…] of fluorophore molecules without nucleic acid aptamer) was also measured under the same conditions, and the ratio of fluorescence intensity was calculated. For example, as for fluorescence of the complex formed by 2.5 μM of N16-1 nucleic acid aptamer and 0.5 μM of I-5-14 fluorophore molecules, the maximum excitation peak is 512 nm and the maximum emission peak is 574 nm. It was detected by the Synergy Neo2 multifunctional enzyme-labeler that the fluorescence intensity of the complex at an excitation condition of 512±10 nm and an emission condition of 574 nm±10 nm was 49,088, while the fluorescence intensity of the control (0.5 μM of I-5-14 fluorophore molecules) under the same detection conditions was 399, so the activation multiple of N16-1 nucleic acid aptamer to I-5-14 fluorophore molecules was 123.\nAccording to the results, most N16-1 mutants with a single base mutation retained a relatively strong fluorescence activation effect (no smaller than 2 times) on I-5-14 (Table 2). Some N16-1 mutants with 2 to 5 base mutations still retained a relatively strong fluorescence activation effect (greater than 20 times) for I-5-14 (Table 3). In a word, many single-base and multi-base mutants of N16-1 might still retain the aptamer function of activating the 1-5-14 fluorophore molecules."}, "[2]": {"system": "F30-N16-1 RNA aptamer molecules", "test": "Binding of F30-N16-1 RNA aptamer molecules with different fluorescent molecules (fluorescence spectrum, activation multiple)", "type": "biochemical", "protocol": "as §1\nF30-N16-1 RNA aptamer molecules were prepared by using the commonly-used experimental method (I), and were used for detecting basic properties, including fluorescence spectrum and fluorescence activation multiple, of the binding of I-5-14 analogues with N16."}, "[3]": {"test": "Spectral properties (excitation, emission, light absorption) of N16-1-I-5-14 complex", "type": "physicochemical", "conditions": "2 μM I-5-14 with 10 μM N16-1, or 5 μM pure I-5-14", "protocol": "In order to detect the spectral properties of N16-1-I-5-14 complex, N16-1 (SEQ ID NO: 1) RNA was prepared by using the commonly-used experimental method (I). 1 μM of I-5-14 was incubated with 5 μM of N16-1. According to the results, the maximum excitation light of N16-1-I-5-14 complex was 512 nm, and the maximum emission light thereof was 574 nm (FIG. 3B).\nIn order to detect the difference between the light absorption of N16-1-I-5-14 complex and that of I-5-14 fluorophore molecules per se, 2 μM of I-5-14 incubated with 10 μM of N16-1, or 5 μM of pure I-5-14 was used for detecting the light absorption of I-5-14 and that of N16-1-I-5-14 complex respectively."}, "[4]": {"system": "BL21 (DE3, Star) Escherichia coli strain expressing F30-N16-1", "test": "Labeling of RNA in bacteria by F30-N16-1-I-5-14 complex", "type": "cell-based", "conditions": "F30-N16-1 induced with 1 mM IPTG 4 h; PBS with 2 μM I-5-14", "description": "In order to detect the effect of F30-N16-1-I-5-14 in bacteria, a bacterial expression plasmid expressing F30-N16-1 (SEQ ID NO: 2) was constructed first. F30-N16-1 in Example 2 was amplified with primers, pET28a was amplified with primers so as to remove the promoter and polyclonal site region, and then the F30-N16-1 DNA fragment obtained by means of amplification was connected to pET28a linearized vector by using the experimental method (III), and the obtained recombinant plasmid was named as pET28a-T7-F30-N16-1.\nBL21 (DE3, Star) Escherichia coli strain was transformed with recombinant plasmid pET28a-T7-F30-N16-1, and monoclone was picked and cultured at 37° C.; when OD600 is about 0.2, 1 mM of IPTG was added to induce the expression of F30-N16-1, and bacteria were collected 4 h later; resuspension was performed with a PBS solution containing 2 μM of I-5-14. BL21 (DE3, Star) Escherichia coli with transformed pET28a empty vector served as control."}, "[5]": {"system": "293T/17 cells expressing F30-N16-1", "test": "Labeling of RNA in mammalian cells by F30-N16-1 and I-5-14", "type": "cell-based", "conditions": "1 μm of I-5-14 added 36 h after transfection", "protocol": "Main imaging experiments in the examples were carried out by using a confocal laser microscope Leica SP8 equipped with white laser, and an HCXPL APO 63×1.47 oil mirror and a HyD detector were used.\nIn order to detect labeling of RNA in mammalian cells by using F30-N16-1 and I-5-14, a mammalian cell expression plasmid expressing F30-N16-1 (SEQ ID NO: 2) was constructed. F30-N16-1 in Example 9 was amplified with primers P1, P2, and P3, respectively.\nThese fragments were inserted into pLKO.1 puro vector by using the experimental method (III), an expression vector obtained thereby was named as pLKO.1-F30-N16-1, and the plasmid expressed F30-N16-1.\n293T/17 cells were transfected with pLKO.1-F30-N16-1 plasmid, […] of I-5-14 was added 36 h later so as to label F30-N16-1, cells not expressing the corresponding aptamer served as control, and the labeling effect was detected by using experimental method (V)."}, "[6]": {"system": "RNA aptamers", "conditions": "cited from earlier work"}, "[7]": {"test": "N16-1 as a label for RNA extraction and purification", "conditions": "total RNA of COS-7 cells; eluent vs crushed supernatant, incubated with I-5-14", "protocol": "In order to detect the application of N16-1 to RNA extraction and purification, the pCDNA3.1/hygro(+)-ACTB-N16-1 recombinant plasmids in Example 13 were transfected into COS-7 cells, cells were collected 24 h later, and total RNA of cells was extracted by using Eastep Super total RNA extraction kit (Promega). The extracted total RNA dissolved in a buffer solution having a pH value of 7.4 and containing 40 mM of HEPES, 125 mM of KCl and 5 mM of MgCl2, and was incubated at 70° C. for 10 min, and then was placed at room temperature for more than 30 min.\n500 μL of Activated Thiol Sepharose 4B (GE Healthcare) was taken and was washed twice with 500 μL of PBS, and PBS containing 10 mM of TCEP (Sigma) was added for incubation at room temperature for 1 h. 500 μL of PBS was used for cleaning twice, I-5-14 fluorophore molecules (Mal-I-5-14) containing maleic amide were added for reaction at room temperature for 30 min, and then 500 μL of PBS was used for cleaning for three times. […]\nWith crushed supernatant of blank cells as control, the fluorescence of the crushed supernatant of cells incubated with fluorophore I-5-14, and that of the eluent after final high temperature elution incubated with fluorophore I-5-14 were respectively detected."}}}
{"molecule": "CN(CCO)c1ccc(/C=C2\\SC(=S)NC2=O)cc1", "note": "[I-5-14]", "values": [{"measurement": "fluorescence intensity of the control", "setting": "[1]", "result": 399}, {"measurement": "Maximum emission peak (nm)", "setting": "[2]; complex with F30-N16-1", "result": 574, "unit": "nm"}, {"measurement": "Maximum excitation peak (nm)", "setting": "[2]; complex with F30-N16-1", "result": 513, "unit": "nm"}, {"measurement": "Activation Multiple", "setting": "[2]; fluorophore with F30-N16-1", "result": 123}, {"measurement": "maximum light absorption", "setting": "[3]", "result": 477, "unit": "nm"}, {"measurement": "fluorescence of bacteria", "setting": "[4]", "result": "bright yellow fluorescence"}, {"measurement": "labeling effect (fluorescence imaging)", "setting": "[5]", "result": "very bright yellow fluorescence"}]}
{"molecule": "CN(C)c1ccc(C(=C2C=CC(=[N+](C)C)C=C2)c2ccccc2)cc1", "note": "[MG, malachite green]", "values": [{"measurement": "fluorescence enhancement multiple", "setting": "[6]", "result": 2360}]}
{"molecule": "ACTB-N16-1: ACTB-N16-1 chimeric RNA, SEQ ID NO: 13 (nucleic acid) ANGGANGANGANANCGCCGCGCNCGNCGNCGACAACGGCNCCGGCANGNGCAAGGCCGGCNNCGCGGGCGACGANGCCCCCCGGGCCGNCNNCCCCNCCANCGNGGGGCGCCCCAGGCACCAGGGCGNGANGGNGGGCANGGGNCAGAAGGANNCCNANGNGGGCGACGAGGCCCAGAGCAAGAGAGGCANCCNCACCCNGAAGNACCCCANCGAGCACGGCANCGNCACCAACNGGGACGACANGGAGAAAANCNGGCACCACACCNNCNACAANGAGCNGCGNGNGGCNCCCGAGGAGCACCCCGNGCNGCNGACCGAGGCCCCCCNGAACCCCAAGGCCAACCGCGAGAAGANGACCCAGANCANGNNNGAGACCNNCAACACCCCAGCCANGNACGNNGCNANCCAGGCNGNGCNANCCCNGNACGCCNCNGGCCGNACCACNGGCANCGNGANGGACNCCGGNGACGGGGNCACCCACACNGNGCCCANCNACGAGGGGNANGCCCNCCCCCANGCCANCCNGCGNCNGGACCNGGCNGGCCGGGACCNGACNGACNACCNCANGAAGANCCNCACCGAGCGCGGCNACAGCNNCACCACCACGGCCGAGCGGGAAANCGNGCGNGACANNAAGGAGAAGCNGNGCNACGNCGCCCNGGACNNCGAGCAAGAGANGGCCACGGCNGCNNCCAGCNCCNCCCNGGAGAAGAGCNACGAGCNGCCNGACGGCCAGGNCANCACCANNGGCAANGAGCGGNNCCGCNGCCCNGAGGCACNCNNCCAGCCNNCCNNCCNGGGCANGGAGNCCNGNGGCANCCACGAAACNACCNNCAACNCCANCANGAAGNGNGACGNGGACANCCGCAAAGACCNGNACGCCAACACAGNGCNGNCNGGCGGCACCACCANGNACCCNGGCANNGCCGACAGGANGCAGAAGGAGANCACNGCCCNGGCACCCAGCACAANGAAGANCAAGANCANNGCNCCNCCNGAGCGCAAGNACNCCGNGNGGANCGGCGGCNCCANCCNGGCCNCGCNGNCCACCNNCCAGCAGANGNGGANCAGCAAGCAGGAGNANGACGAGNCCGGCCCCNCCANCGNCCACCGCAAANGCNNCNAGCNCGAGGCCGCGGGCNCCAGGNGCNGCNNCGGCAGGNAACGGACNNAGANCCACNGNACGCCCGCGGC", "values": [{"measurement": "enrichment of RNA on Mal-I-5-14 microbeads", "setting": "[7]", "result": "well enriched"}]}
